# In patent publication US4847303A, “Tert-butylphenyl compounds useful as anti-inflammatory agents” (The Procter & Gamble Company, priority 1987, dated 1989):
# System: Carrageenan Rat Paw Edema
# Assay: Carrageenan Rat Paw Edema Test
# Type: in vivo, rat (male Sprague-Dawley)
# Details: 100 mg/kg P.O.; carrageenan 1 h after dosing, paw volume 4 h after carrageenan; all values statistically significant from control at P ≤ 0.05
# Description: Carrageenan Rat Paw Edema Test
# Male Sprague-Dawley rats (Charles River Laboratories) are weighed and food fasted overnight. The animals are then divided into four to six groups of six animals each according to body weights (average about 145 g) so that each group has about the same average body weight (within 10 g).
# The following morning animals are dosed with the test compound and then placed in individual cages. For oral dosing, the drug is suspended in 0.5% methyl cellulose with 2% Tween 80, and delivered via stomach tube in a 5 ml volume.
# Paw volumes (0 time) are determined on both hind paws with a mercury displacement device equipped with a transducer and digitizer. One hour after dosing the test compound, the animals are placed in a plastic restrainer and 50 ul of a 1% (w/w) carrageenan solution in 0.9% saline is injected into the ventral surface of the left rear paw. Four hours after the carrageenan injection, the paw volumes are again determined.
# The results are expressed as percent inhibition of the mean paw volume of the test group relative to the control group. Statistical differences are determined by one way analysis of variance.
row,SMILES,Percent Inhibition at 100 mg/kg dosed P.O (mean paw volume of the test group relative to the control group) [%]
1,"C#CCCCC(=O)c1cc(C(C)CC)c(O)c(C(C)(C)C)c1 (stereo not drawn) [Example 6, 2-s-butyl-4-(5'-hexynoyl)-6-t-butylphenol]",51.5
2,"C#CCCCC(=O)c1cc(C(C)(C)C)c(O)c(C(C)(C)CO)c1 [Example 2, 2-(2-hydroxy-1,1-dimethyl-ethyl)-4-(5'-hexynoyl)-6-t-butylphenol]",48.4
3,"C#CCCCC(=O)c1cc(CCC)c(O)c(C(C)(C)C)c1 [Example 4, 2-n-propyl-4-(5'-hexynoyl)-6-t-butylphenol]",53.2
4,"C#CCCCC(=O)c1cc(C)c(O)c(C(C)(C)C)c1 [Example 1, 2-methyl-4-(5'-hexynoyl)-6-t-butylphenol]",75.4
5,"C#CCCCC(=O)c1cc(CC=C)c(O)c(C(C)(C)C)c1 [Example 3, 1-Allyl-4-(5'-hexynoyl)-6-t-butylphenol]",65.8
6,"C#CCCCC(=O)c1cc(C(C)C=C)c(O)c(C(C)(C)C)c1 (stereo not drawn) [Example 5, 2-s-(3-butenyl)-4-(5'-hexynoyl)-6-t-butylphenol]",90.8
